Patent EP0435794A1, “Alkenyl- or heteroaryl thio, sulfone, sulfoxy herbicides” (RHONE-POULENC AGROCHIMIE, priority 1989, dated 1991)

Legend:
Type in all cases: in vivo
[1] = tested on: Setaria faberii; assay: Exemple C: selectivity test in field crops, pre-emergence (weed); conditions: 24 days
Description: (§1) Exemple C - Essai de sélectivité en grandes cultures avec application herbicide, en prélevée des espèces végétales
(§2) Dans des pots de 7 X 7 X 8 cm remplis de terre agricole légère, on sème un nombre de graines déterminé en fonction de l'espèce végétale et de la grosseur de la graine.
(§3) On recouvre ensuite les graines d'une couche de terre d'environ 3 mm d'épaisseur.
(§4) Les pots sont alors traités par pulvérisation de bouillie en quantité correspondant à une dose volumique d'application de 500 l/ha et contenant la matière active à la concentration désirée.
(§5) La bouillie a été préparée de la même manière qu'à l'exemple A.
(§6) Les pots traités sont ensuite placés dans des bacs destinés à recevoir l'eau d'arrosage, en subirrigation, et maintenus pendant 24 jours à température ambiante sous 70 % d'humidité relative.
(§7) Le relevé est effectué de la façon suivante:
(§8) Au bout de 24 jours, on mesure un pourcentage (D) de destruction du nombre de pieds dans le pot traité par rapport au nombre de plantes dans les pots non traités (témoin). On mesure, sur les plantes traitées restantes, le pourcentage de réduction de taille (RT) par rapport aux plantes témoins.
(§9) Le pourcentage de volume foliaire non détruit par le produit est donc donné par la formule: ([100-D] X [100-RT])/(100)= A [formula]
(§10) Cette valeur A est transformée en notation de 0 à 5 selon l'échelle suivante:
(§11) Ainsi, un produit est jugé comme sélectif vis à vis de la culture lorsque la valeur A notée est de 0 ou 1.
(§12) Les résultats obtenus sont présentés dans l'exemple C pour des doses d'application de 500, 1000, 2000 ou 4000 g de matière active par hectare selon les produits.
(§13) Les espèces végétales utilisées dans cet exemple sont: […]

[2] = tested on: Panicum milicaeum; assay: as above; conditions: 24 days
Description: as §1, §2, §3, §4, §5, §6, §7, §8, §9, §10, §11, §12, §13

[3] = tested on: Alopecurus myosuroides; assay: as above; conditions: 24 days
Description: as §1, §2, §3, §4, §5, §6, §7, §8, §9, §10, §11, §12, §13

[4] = tested on: Digitaria sanguinalis; assay: as above; conditions: 24 days
Description: as §1, §2, §3, §4, §5, §6, §7, §8, §9, §10, §11, §12, §13

[5] = tested on: Echinochloa crus-galli; assay: as above; conditions: 24 days
Description: as §1, §2, §3, §4, §5, §6, §7, §8, §9, §10, §11, §12, §13

[6] = tested on: Sorghum halepense; assay: as above; conditions: 24 days
Description: as §1, §2, §3, §4, §5, §6, §7, §8, §9, §10, §11, §12, §13

[7] = tested on: blé; assay: Exemple C: selectivity test in field crops, pre-emergence (crop); conditions: 24 days, 0 or 1 = selective; also: ranges in brackets are in %
Description: as §1, §2, §3, §4, §5, §6, §7, §8, §9, §10, §11, §12
(§14) Les espèces végétales utilisées dans cet exemple sont:
(§15) Comme on peut le voir sur le tableau de résultats de cet exemple C, de nombreux produits présentent une excellente activité antigraminée de prélevée tout en montrant une excellente sélectivité pour 1 ou 2 ou 3 ou 4 des 4 cultures testées = blé, maïs, riz, soja.

[8] = tested on: maïs; assay: as above; conditions: 24 days, 0 or 1 = selective; also: ranges in brackets are in %
Description: as §1, §2, §3, §4, §5, §6, §7, §8, §9, §10, §11, §12, §14, §15

[9] = tested on: riz; assay: as above; conditions: 24 days, 0 or 1 = selective; also: ranges in brackets are in %
Description: as §1, §2, §3, §4, §5, §6, §7, §8, §9, §10, §11, §12, §14, §15

[10] = tested on: soja; assay: as above; conditions: 24 days, 0 or 1 = selective; also: ranges in brackets are in %
Description: as §1, §2, §3, §4, §5, §6, §7, §8, §9, §10, §11, §12, §14, §15

Compound: C=C(CS(=O)(=O)c1sc(C)nc1C)c1cccc(F)c1 [compound 45]
- Notation de l'activité herbicide SET ([1]; dose 1 Kg m.a./ha): 3 (30 à 50)
- Notation de l'activité herbicide PAN ([2]; dose 1 Kg m.a./ha): 5 (O à 10)
- Notation de l'activité herbicide ALO ([3]; dose 1 Kg m.a./ha): 5 (O à 10)
- Notation de l'activité herbicide DIG ([4]; dose 1 Kg m.a./ha): 4 (10 à 30)
- Notation de l'activité herbicide ECh ([5]; dose 1 Kg m.a./ha): 5 (O à 10)
- Notation de l'activité herbicide SOR ([6]; dose 1 Kg m.a./ha): 5 (O à 10)
- Notation de l'activité herbicide TRZ ([7]; dose 1 Kg m.a./ha): 1 (70 à 90)
- Notation de l'activité herbicide ZEA ([8]; dose 1 Kg m.a./ha): 0 (90 à 100)
- Notation de l'activité herbicide ORY ([9]; dose 1 Kg m.a./ha): 0 (90 à 100)
- Notation de l'activité herbicide GLY ([10]; dose 1 Kg m.a./ha): 0 (90 à 100)

Compound: O=S(=O)(CC(O)(CBr)c1ccc(F)c(Cl)c1)c1ccsc1 (centres unmarked) [compound 65]
- Notation de l'activité herbicide SET ([1]; dose 0.5 Kg m.a./ha): 0 (90 à 100)
- Notation de l'activité herbicide PAN ([2]; dose 0.5 Kg m.a./ha): 3 (30 à 50)
- Notation de l'activité herbicide ALO ([3]; dose 0.5 Kg m.a./ha): 0 (90 à 100)
- Notation de l'activité herbicide DIG ([4]; dose 0.5 Kg m.a./ha): 5 (O à 10)
- Notation de l'activité herbicide ECh ([5]; dose 0.5 Kg m.a./ha): 5 (O à 10)
- Notation de l'activité herbicide SOR ([6]; dose 0.5 Kg m.a./ha): 5 (O à 10)
- Notation de l'activité herbicide TRZ ([7]; dose 0.5 Kg m.a./ha): 0 (90 à 100)
- Notation de l'activité herbicide ZEA ([8]; dose 0.5 Kg m.a./ha): 0 (90 à 100)
- Notation de l'activité herbicide ORY ([9]; dose 0.5 Kg m.a./ha): 3 (30 à 50)
- Notation de l'activité herbicide GLY ([10]; dose 0.5 Kg m.a./ha): 0 (90 à 100)

Compound: C=C(CS(=O)(=O)C=C(C)C)c1ccccc1 [compound 73]
- Notation de l'activité herbicide SET ([1]; dose 2 Kg m.a./ha): 0 (90 à 100)
- Notation de l'activité herbicide PAN ([2]; dose 2 Kg m.a./ha): 3 (30 à 50)
- Notation de l'activité herbicide ALO ([3]; dose 2 Kg m.a./ha): 4 (10 à 30)
- Notation de l'activité herbicide DIG ([4]; dose 2 Kg m.a./ha): 3 (30 à 50)
- Notation de l'activité herbicide ECh ([5]; dose 2 Kg m.a./ha): 5 (O à 10)
- Notation de l'activité herbicide SOR ([6]; dose 2 Kg m.a./ha): 3 (30 à 50)
- Notation de l'activité herbicide TRZ ([7]; dose 2 Kg m.a./ha): 1 (70 à 90)
- Notation de l'activité herbicide ZEA ([8]; dose 2 Kg m.a./ha): 2 (50 à 70)
- Notation de l'activité herbicide ORY ([9]; dose 2 Kg m.a./ha): 0 (90 à 100)
- Notation de l'activité herbicide GLY ([10]; dose 2 Kg m.a./ha): 0 (90 à 100)

Compound: O=S(=O)(CC(O)(CBr)c1cccc(F)c1)c1cccs1 (centres unmarked) [compound 53, 1-bromo 2-(3-fluorophényl) 3-(2-thiénylsulfonyl) 2-propanol]
- Notation de l'activité herbicide SET ([1]; dose 0.5 Kg m.a./ha): 1 (70 à 90)
- Notation de l'activité herbicide PAN ([2]; dose 0.5 Kg m.a./ha): 1 (70 à 90)
- Notation de l'activité herbicide ALO ([3]; dose 0.5 Kg m.a./ha): 2 (50 à 70)
- Notation de l'activité herbicide DIG ([4]; dose 0.5 Kg m.a./ha): 4 (10 à 30)
- Notation de l'activité herbicide ECh ([5]; dose 0.5 Kg m.a./ha): 4 (10 à 30)
- Notation de l'activité herbicide SOR ([6]; dose 0.5 Kg m.a./ha): 4 (10 à 30)
- Notation de l'activité herbicide TRZ ([7]; dose 0.5 Kg m.a./ha): 0 (90 à 100)
- Notation de l'activité herbicide ZEA ([8]; dose 0.5 Kg m.a./ha): 2 (50 à 70)
- Notation de l'activité herbicide ORY ([9]; dose 0.5 Kg m.a./ha): 3 (30 à 50)
- Notation de l'activité herbicide GLY ([10]; dose 0.5 Kg m.a./ha): 0 (90 à 100)

Compound: C=C(CS(=O)(=O)/C=C/C)c1ccccc1 [compound 70, (E)-2-phényl 1-(1-propénylsulfonyl)2-propène]
- Notation de l'activité herbicide SET ([1]; dose 2 Kg m.a./ha): 3 (30 à 50)
- Notation de l'activité herbicide PAN ([2]; dose 2 Kg m.a./ha): 3 (30 à 50)
- Notation de l'activité herbicide ALO ([3]; dose 2 Kg m.a./ha): 4 (10 à 30)
- Notation de l'activité herbicide ECh ([5]; dose 2 Kg m.a./ha): 5 (O à 10)
- Notation de l'activité herbicide SOR ([6]; dose 2 Kg m.a./ha): 5 (O à 10)
- Notation de l'activité herbicide TRZ ([7]; dose 2 Kg m.a./ha): 2 (50 à 70)
- Notation de l'activité herbicide ZEA ([8]; dose 2 Kg m.a./ha): 0 (90 à 100)
- Notation de l'activité herbicide ORY ([9]; dose 2 Kg m.a./ha): 1 (70 à 90)
- Notation de l'activité herbicide GLY ([10]; dose 2 Kg m.a./ha): 0 (90 à 100)

Compound: CS(=O)(=O)OCC(O)(CS(=O)(=O)c1cccs1)c1cc(Cl)cc(Cl)c1 (centres unmarked) [compound 56, 2-(3,5-dichlorophényl) 1-méthylsulfonate 3-(2-thiénylsulfonyl) 2-propanol]
- Notation de l'activité herbicide SET ([1]; dose 1 Kg m.a./ha): 5 (O à 10)
- Notation de l'activité herbicide PAN ([2]; dose 1 Kg m.a./ha): 5 (O à 10)
- Notation de l'activité herbicide DIG ([4]; dose 1 Kg m.a./ha): 5 (O à 10)
- Notation de l'activité herbicide ECh ([5]; dose 1 Kg m.a./ha): 5 (O à 10)
- Notation de l'activité herbicide SOR ([6]; dose 1 Kg m.a./ha): 2 (50 à 70)
- Notation de l'activité herbicide TRZ ([7]; dose 1 Kg m.a./ha): 2 (50 à 70)
- Notation de l'activité herbicide ZEA ([8]; dose 1 Kg m.a./ha): 1 (70 à 90)
- Notation de l'activité herbicide ORY ([9]; dose 1 Kg m.a./ha): 2 (50 à 70)
- Notation de l'activité herbicide GLY ([10]; dose 1 Kg m.a./ha): 0 (90 à 100)

Compound: Cc1cc(C(O)(CBr)CS(=O)(=O)c2ccsc2)ccc1F (centres unmarked) [compound 66]
- Notation de l'activité herbicide SET ([1]; dose 1 Kg m.a./ha): 3 (30 à 50)
- Notation de l'activité herbicide PAN ([2]; dose 1 Kg m.a./ha): 3 (30 à 50)
- Notation de l'activité herbicide ALO ([3]; dose 1 Kg m.a./ha): 3 (30 à 50)
- Notation de l'activité herbicide DIG ([4]; dose 1 Kg m.a./ha): 5 (O à 10)
- Notation de l'activité herbicide ECh ([5]; dose 1 Kg m.a./ha): 5 (O à 10)
- Notation de l'activité herbicide SOR ([6]; dose 1 Kg m.a./ha): 5 (O à 10)
- Notation de l'activité herbicide TRZ ([7]; dose 1 Kg m.a./ha): 1 (70 à 90)
- Notation de l'activité herbicide ZEA ([8]; dose 1 Kg m.a./ha): 2 (50 à 70)
- Notation de l'activité herbicide ORY ([9]; dose 1 Kg m.a./ha): 2 (50 à 70)
- Notation de l'activité herbicide GLY ([10]; dose 1 Kg m.a./ha): 1 (70 à 90)
